Legend:
Format in all cases: in vivo
kochia (Kochia scoparia) [1] = experiment: Test A postemergence, visual injury rating; conditions: 0 is no effect, 100 is complete control; for Kochia plant response rating: 0 to 100 scale, approximately 10 days; for Kochia plant response rating (0 to 100 scale): 500 g ai/ha
Outline: (§1)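 Scoring: eye-based comparison with untreated controls, 0 for no effect through 100 for complete control, at about day 10. Treatments: directed soil spray preemergence; foliar spray postemergence on 2–10 cm plants at the one- to two-leaf stage. Medium: loam soil with sand.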

[2] = tested on: galium (catchweed bedstraw, Galium aparine); experiment: Test A postemergence, visual injury rating; conditions: 0 is no effect, 100 is complete control; for Galium plant response rating: 0 to 100 scale, approximately 10 days; for Galium plant response rating (0 to 100 scale): 500 g ai/ha
Outline: as §1

[3] = tested on: blackgrass (Alopecurus myosuroides); experiment: Test A postemergence, visual injury rating; conditions: 0 is no effect, 100 is complete control; for Blackgrass plant response rating: 0 to 100 scale, approximately 10 days; for Blackgrass plant response rating (0 to 100 scale): 500 g ai/ha
Outline: as §1

[4] = tested on: giant foxtail (Setaria faberii); experiment: Test A postemergence, visual injury rating; conditions: 0 is no effect, 100 is complete control; for Foxtail, Giant plant response rating: 0 to 100 scale, approximately 10 days; for Foxtail, Giant plant response rating (0 to 100 scale): 500 g ai/ha
Outline: as §1

[5] = tested on: barnyardgrass (Echinochloa crus-galli); experiment: Test A postemergence, visual injury rating; conditions: 0 is no effect, 100 is complete control; for Barnyardgrass plant response rating: 0 to 100 scale, approximately 10 days; for Barnyardgrass plant response rating (0 to 100 scale): 500 g ai/ha
Outline: as §1

corn (Zea mays) = experiment: Test A postemergence, visual injury rating; conditions: 0 is no effect, 100 is complete control; for Corn plant response rating: 0 to 100 scale, approximately 10 days; for Corn plant response rating (0 to 100 scale): 500 g ai/ha
Outline: as §1

[6] = tested on: ragweed (common ragweed, Ambrosia elatior); experiment: Test A postemergence, visual injury rating; conditions: 0 is no effect, 100 is complete control; for Ragweed plant response rating: 0 to 100 scale, approximately 10 days; for Ragweed plant response rating (0 to 100 scale): 500 g ai/ha
Outline: as §1

[7] = tested on: pigweed (Amaranthus retroflexus); experiment: Test A postemergence, visual injury rating; conditions: 0 is no effect, 100 is complete control; for Pigweed plant response rating: 0 to 100 scale, approximately 10 days; for Pigweed plant response rating (0 to 100 scale): 500 g ai/ha
Outline: as §1

[8] = tested on: wheat (Triticum aestivum); experiment: Test A postemergence, visual injury rating; conditions: 0 is no effect, 100 is complete control; for Wheat plant response rating: 0 to 100 scale, approximately 10 days; for Wheat plant response rating (0 to 100 scale): 500 g ai/ha
Outline: as §1

[9] = tested on: Italian ryegrass (Lolium multiflorum); experiment: Test A postemergence, visual injury rating; conditions: 0 is no effect, 100 is complete control; for Ryegrass, Italian plant response rating: 0 to 100 scale, approximately 10 days; for Ryegrass, Italian plant response rating (0 to 100 scale): 500 g ai/ha
Outline: as §1

kochia (Kochia scoparia) [10] = experiment: Test A preemergence, visual injury rating; conditions: for Kochia plant response rating: 0 to 100 scale (0 no effect, 100 complete control)
Outline: as §1

[11] = tested on: giant foxtail (Setaria faberii); experiment: Test A preemergence, visual injury rating; conditions: for Foxtail, Giant plant response rating: 0 to 100 scale (0 no effect, 100 complete control)
Outline: as §1

[12] = tested on: barnyardgrass (Echinochloa crus-galli); experiment: Test A preemergence, visual injury rating; conditions: for Barnyardgrass plant response rating: 0 to 100 scale (0 no effect, 100 complete control)
Outline: as §1

[13] = tested on: ragweed (common ragweed, Ambrosia elatior); experiment: Test A preemergence, visual injury rating; conditions: for Ragweed plant response rating: 0 to 100 scale (0 no effect, 100 complete control)
Outline: as §1

[14] = tested on: pigweed (Amaranthus retroflexus); experiment: Test A preemergence, visual injury rating; conditions: for Pigweed plant response rating: 0 to 100 scale (0 no effect, 100 complete control)
Outline: as §1

[15] = tested on: Italian ryegrass (Lolium multiflorum); experiment: Test A preemergence, visual injury rating; conditions: for Ryegrass, Italian plant response rating: 0 to 100 scale (0 no effect, 100 complete control)
Outline: as §1

[16] = tested on: sedge, umbrella (small-flower umbrella sedge, Cyperus difformis); experiment: Test B flooded paddy test, plant response rating; conditions: 250 g ai/ha; Flood; scale of 0 to 100 where 0 is no effect and 100 is complete control; 13 to 15 days
Outline: (§2)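 Flooded 3 cm over soil; compound into paddy water; depth kept constant. Greenhouse 13–15 d.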

[17] = tested on: ducksalad (Heteranthera limosa); experiment: Test B flooded paddy test, plant response rating; conditions: 250 g ai/ha; Flood; scale of 0 to 100 where 0 is no effect and 100 is complete control; 13 to 15 days
Outline: as §2

[18] = tested on: barnyardgrass (Echinochloa crus-galli); experiment: Test B flooded paddy test, plant response rating; conditions: 250 g ai/ha; Flood; scale of 0 to 100 where 0 is no effect and 100 is complete control; 13 to 15 days
Outline: as §2

rice (Oryza sativa) = experiment: Test B flooded paddy test, plant response rating; conditions: 250 g ai/ha; Flood; scale of 0 to 100 where 0 is no effect and 100 is complete control; 13 to 15 days
Outline: as §2

[19] = 31 g ai/ha, 0 to 100 scale, 0 no effect, 100 complete control

Structure (SMILES) | Kochia plant response rating (kochia (Kochia scoparia) [1]; 125 g ai/ha) | Galium plant response rating ([2]; 125 g ai/ha) | Blackgrass plant response rating ([3]; 125 g ai/ha) | Foxtail, Giant plant response rating ([4]; 125 g ai/ha) | Barnyardgrass plant response rating ([5]; 125 g ai/ha) | Corn plant response rating (corn (Zea mays); 125 g ai/ha) | Ragweed plant response rating ([6]; 125 g ai/ha) | Pigweed plant response rating ([7]; 125 g ai/ha) | Wheat plant response rating ([8]; 125 g ai/ha) | Ryegrass, Italian plant response rating ([9]; 125 g ai/ha) | Kochia plant response rating (kochia (Kochia scoparia) [10]; 125 g ai/ha) | Foxtail, Giant plant response rating ([11]; 125 g ai/ha) | Barnyardgrass plant response rating ([12]; 125 g ai/ha) | Ragweed plant response rating ([13]; 125 g ai/ha) | Pigweed plant response rating ([14]; 125 g ai/ha) | Ryegrass, Italian plant response rating ([15]; 125 g ai/ha) | Plant response rating, Sedge, Umbrella [16] | Plant response rating, Ducksalad [17] | Plant response rating, Barnyardgrass [18] | Plant response rating, Rice (rice (Oryza sativa)) | other results
CCC(C)OC(=O)c1c(Br)cccc1Oc1ncc(Cl)cn1 (stereo not drawn) [Compound 84] | 30 | 30 | 0 | 0 | 0 | 10 | 0 | 30 | 0 | 0 | 0 | 0 | 0 | 0 | 0 | 0 | 0 | 0 | 0 | 0 | Kochia plant response rating (0 to 100 scale) (kochia (Kochia scoparia) [1]): 70; Galium plant response rating (0 to 100 scale) [2]: 40; Blackgrass plant response rating (0 to 100 scale) [3]: 0; Foxtail, Giant plant response rating (0 to 100 scale) [4]: 60; Barnyardgrass plant response rating (0 to 100 scale) [5]: 40; Corn plant response rating (0 to 100 scale) (corn (Zea mays)): 40; Ragweed plant response rating (0 to 100 scale) [6]: 0; Pigweed plant response rating (0 to 100 scale) [7]: 70; Wheat plant response rating (0 to 100 scale) [8]: 20; Ryegrass, Italian plant response rating (0 to 100 scale) [9]: 0; Kochia plant response rating (kochia (Kochia scoparia) [10]; 500 g ai/ha): 0; Foxtail, Giant plant response rating ([11]; 500 g ai/ha): 100; Barnyardgrass plant response rating ([12]; 500 g ai/ha): 90; Ragweed plant response rating ([13]; 500 g ai/ha): 0; Pigweed plant response rating ([14]; 500 g ai/ha): 100; Ryegrass, Italian plant response rating ([15]; 500 g ai/ha): 0
O=C(SCC(F)(F)F)c1c(Br)cccc1Oc1ncc(Cl)cn1 [Compound 85] | 30 | 30 | 0 | 0 | 0 | 10 | 0 | 30 | 0 | 0 | 0 | 0 | 0 | 0 | 0 | 0 | 0 | 0 | 0 | 0 | Kochia plant response rating (0 to 100 scale) (kochia (Kochia scoparia) [1]): 80; Galium plant response rating (0 to 100 scale) [2]: 90; Blackgrass plant response rating (0 to 100 scale) [3]: 0; Foxtail, Giant plant response rating (0 to 100 scale) [4]: 60; Barnyardgrass plant response rating (0 to 100 scale) [5]: 20; Corn plant response rating (0 to 100 scale) (corn (Zea mays)): 40; Ragweed plant response rating (0 to 100 scale) [6]: 0; Pigweed plant response rating (0 to 100 scale) [7]: 70; Wheat plant response rating (0 to 100 scale) [8]: 20; Ryegrass, Italian plant response rating (0 to 100 scale) [9]: 0; Kochia plant response rating (kochia (Kochia scoparia) [10]; 500 g ai/ha): 0; Foxtail, Giant plant response rating ([11]; 500 g ai/ha): 70; Barnyardgrass plant response rating ([12]; 500 g ai/ha): 10; Ragweed plant response rating ([13]; 500 g ai/ha): 0; Pigweed plant response rating ([14]; 500 g ai/ha): 60; Ryegrass, Italian plant response rating ([15]; 500 g ai/ha): 0
CCCCc1c(C#N)cccc1Oc1ncc(Cl)cn1 [Compound 86] | 100 | 70 | 20 | 30 | 40 | 30 | 0 | 40 | 40 | 20 | 100 | 50 | 90 | 0 | 100 | 20 | 100 | 100 | 40 | 20 | Kochia plant response rating (kochia (Kochia scoparia) [1]; 31 g ai/ha): 90; Galium plant response rating ([2]; 31 g ai/ha): 30; Blackgrass plant response rating ([3]; 31 g ai/ha): 0; Foxtail, Giant plant response rating ([4]; 31 g ai/ha): 10; Barnyardgrass plant response rating ([5]; 31 g ai/ha): 20; Corn plant response rating (corn (Zea mays); 31 g ai/ha): 30; Ragweed plant response rating ([6]; 31 g ai/ha): 0; Pigweed plant response rating ([7]; 31 g ai/ha): 30; Wheat plant response rating ([8]; 31 g ai/ha): 30; Ryegrass, Italian plant response rating ([9]; 31 g ai/ha): 0; Plant response rating, Kochia (kochia (Kochia scoparia) [10]; [19]): 10; Plant response rating, Foxtail, Giant [11, 19]: 0; Plant response rating, Barnyardgrass [12, 19]: 0; Plant response rating, Ragweed [13, 19]: 0; Plant response rating, Pigweed [14, 19]: 20; Plant response rating, Ryegrass, Italian [15, 19]: 0
